The values that follow are results of earlier work, collected in patent publication US6368613B1, “Use of fluorocarbons for diagnosis and treatment of articular disorders” (Alliance Pharmaceutical Corp., priority 1996, dated 2002).

Where two headings read alike, the source gives them in different places. Marks after values point to notes of the source that are not given here.

[1] abbreviates: octanol/water partition coefficient.
[2] abbreviates: in octanol/pH 7.4 isotonic phosphate buffer at 37° C. (marked a).

As for `C[C@]12CC[C@H]3[C@@H](CCC4=CC(=O)CC[C@@]43C)[C@@H]1CC[C@@H]2O` [C-testosterone, testosterone], under setting [1], the “Log Po/w” value is 3.3 and the Po/w is listed as 2.00 × 10^3.

On to `FC(F)(F)C(Cl)Br` (centres unmarked) [halothane], for which, under setting [1], the “Log Po/w” value is 2.30 and the Po/w was 2.00 × 10^2.

As for `Clc1cccc(Cl)c1N=C1NCCN1` [H-clonidine, clonidine], under setting [1], the “Log Po/w” value is 1.4 and the Po/w is on record as 25.1.

On to `CC(=O)[C@@]1(O)CC[C@H]2[C@@H]3C[C@H](C)C4=CC(=O)C=C[C@]4(C)[C@@]3(F)[C@@H](O)C[C@@]21C` [H -fluorornetholone, fluorornetholone], for which, under setting [1], the “Log Po/w” value is 2.1 and the Po/w is 1.26 × 10^2.

As to `CCCCN1CCCCC1C(=O)Nc1c(C)cccc1C` (centres unmarked) [bupivacaine], under setting [1], the “Log Po/w” value is given as 1.45 and the Po/w is given as 28.2.

As to `CCCCCCCCCCCC(=O)N1CCCCCC1` [C-hexamethylenelauramide, hexamethylenelauramide], under setting [1], the “Log Po/w” value was 7.3 and the Po/w is recorded as 2.00 × 10^7.

In the case of `CCc1cc2c(s1)N(C)C(=O)CN=C2c1ccccc1Cl` [clotiazepam], under setting [2], the “Log Po/w” value is given as 3.49^a and the Po/w is 3.06 × 10^3.

In the case of `c1ccc2cc3ccccc3cc2c1` [C-anthracene, anthracene], under setting [1], the “Log Po/w” value is recorded as 4.5 and the Po/w is recorded as 3.16 × 10^4.

Turning to `O=C1CN=C(c2ccccc2)c2cc([N+](=O)[O-])ccc2N1` [nitrazepam], under setting [1], the “Log Po/w” value is on record as 2.21 and the Po/w was 162.

`CC(C)=CCN1CCC2(C)c3cc(O)ccc3CC1C2C` (centres unmarked) [pentazocin]: under setting [2], the “Log Po/w” value is 2.18^a and the Po/w is given as 150.

Regarding `CC(CN1c2ccccc2Sc2ccccc21)N(C)C` (centres unmarked) [promethazine], under setting [2], the “Log Po/w” value is 3.10^a and the Po/w is recorded as 1.27 × 10^3.

Take `CCCCC(=O)OCCOCn1cnc2c(=O)[nH]c(N)nc21` [valeryl acyclovir]: the Po/w under setting [2] is on record as 2.01. Besides, the “Log Po/w” value (pH 7.4) was 0.30^a.

For the compound `CN(C)CCCN1c2ccccc2CCc2ccc(Cl)cc21` [clomipramine], under setting [2], the “Log Po/w” value is 3.58^a and the Po/w is recorded as 3.80 × 10^3.

Take `CCCCCC(=O)OCCOCn1cnc2c(=O)[nH]c(N)nc21` [hexanoyl acyclovir]: the Po/w under setting [2] is given as 8.58. The “Log Po/w” value (pH 7.4) is 0.93^a.

Turning to `CCCCNc1ccc(C(=O)OCCN(C)C)cc1` [tetracaine], under setting [1], the “Log Po/w” value was 1.90 and the Po/w is on record as 79.4.

With `CCCCC(CC)COC(=O)c1ccc(N(C)C)cc1` (centres unmarked) [C-padimate-o, padimate-o], under setting [1], the “Log Po/w” value is 6.6 and the Po/w is on record as 3.98 × 10^6.

Regarding `OC(CCN1CCCCC1)(c1ccccc1)C1CCCCC1` (centres unmarked) [trihexyphenidyl], under setting [2], the “Log Po/w” value was 3.17^a and the Po/w is on record as 1.47 × 10^3.

Turning to `CC/C(=C(/CC)c1ccc(O)cc1)c1ccc(O)cc1` [H -diethylstilbesterol, diethylstilbesterol], under setting [1], the “Log Po/w” value is 5.1 and the Po/w is reported as 1.26 × 10^5.

As for `COc1ccc(C(=O)CC(=O)c2ccc(C(C)(C)C)cc2)cc1` [H-parsol 1789, parsol 1789], under setting [1], the “Log Po/w” value is 6.7 and the Po/w is 5.0 × 10^6.
